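Exposure lasted 48 hours, with cells grown in 96-well plates and compounds tested at five concentrations. Definition used: TGI = concentration required for complete inhibition of growth.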

Among the test systems are RXF 393 renal; DU-145 prostate; MDA-MB-231 breast; NCI-H460 lung; SR leukemia; HCT-116 colon; BT-549 breast; RPMI-8226 leukemia; SK-MEL-2 melanoma; M14 melanoma; MCF7 breast; NCI-H522 lung; PC-3 prostate; SK-MEL-28 melanoma; OVCAR-5 ovarian; HL-60(TB) leukemia.
What all share (assay): NCI anticancer screen, dose series, 48 h

Consider `CC(C)CCNC(=O)c1ccc(CNC(=O)/C=C/c2cccc(Oc3ccccc3)c2)cc1`, for which the TGI with RXF 393 renal is 52 µM; in the assay with DU-145 prostate, greater than 100 µM; in the assay with MDA-MB-231 breast, 77.5 µM; in the assay on NCI-H460 lung, greater than 100 µM; with SR leukemia, greater than 100 µM; in the assay with HCT-116 colon it was greater than 100 µM. For the same compound, the TGI is greater than 100 µM in the assay on BT-549 breast; greater than 100 µM in the assay on RPMI-8226 leukemia; 72.5 µM in the assay on SK-MEL-2 melanoma; greater than 100 µM with M14 melanoma; greater than 100 µM in the assay with MCF7 breast; greater than 100 µM in the assay with NCI-H522 lung. In addition, the TGI in the assay on PC-3 prostate, in the assay on SK-MEL-28 melanoma and in the assay on OVCAR-5 ovarian was greater than 100 µM each time.

On to `ONC1=Nc2cc(Cl)ccc2C(=S)N2CSCC12` (stereo not given), for which the TGI with RXF 393 renal, in the assay on DU-145 prostate, in the assay with MDA-MB-231 breast, in the assay on NCI-H460 lung, with SR leukemia and in the assay with HCT-116 colon was greater than 100 µM throughout. In addition, the TGI with BT-549 breast, in the assay with RPMI-8226 leukemia, in the assay on SK-MEL-2 melanoma, with M14 melanoma, with MCF7 breast and in the assay with NCI-H522 lung was greater than 100 µM in each case. For the same compound, the TGI with PC-3 prostate, with SK-MEL-28 melanoma and in the assay on OVCAR-5 ovarian was greater than 100 µM throughout.

As to `O=C(CSc1nnc(-c2ccccn2)s1)N/N=C/c1ccccc1`, the TGI in the assay with DU-145 prostate, in the assay on MDA-MB-231 breast, in the assay with NCI-H460 lung, in the assay with SR leukemia, in the assay with HCT-116 colon and with BT-549 breast was greater than 100 µM in each case. Moreover, the TGI in the assay on SK-MEL-2 melanoma, in the assay with M14 melanoma, in the assay with MCF7 breast, in the assay with NCI-H522 lung, in the assay on PC-3 prostate and with SK-MEL-28 melanoma was greater than 100 µM in each case. Also, the TGI with OVCAR-5 ovarian was greater than 100 µM.

In the case of `CC1(C)C2CCC1(C)C(N/C(Sc1ccccc1)=C(/C(Cl)=C(Cl)Cl)[N+](=O)[O-])C2` (stereo not given), the TGI in the assay with DU-145 prostate is 61.1 µM; in the assay with MDA-MB-231 breast it was 22 µM; in the assay on NCI-H460 lung, 32.7 µM; in the assay on HCT-116 colon it was 28.8 µM; in the assay on BT-549 breast, 28.8 µM; in the assay with SK-MEL-2 melanoma, 25 µM. Besides, the TGI with M14 melanoma was determined as 25.9 µM; with MCF7 breast, 24 µM; in the assay on PC-3 prostate, 21.1 µM; in the assay with SK-MEL-28 melanoma it was 24.9 µM; in the assay with OVCAR-5 ovarian, 65.5 µM.

For the compound `C=CC[C@]1(/C=N/O)CN(S(=O)(=O)CC[Si](C)(C)C)C[C@H]2CC=CC[C@H]21`, the TGI in the assay with RXF 393 renal is 29.6 µM; in the assay on DU-145 prostate, 46.9 µM; with MDA-MB-231 breast, 44.2 µM; in the assay on NCI-H460 lung, 38.5 µM; in the assay with HCT-116 colon, 27.3 µM; in the assay on BT-549 breast it was 80.7 µM. For the same compound, the TGI in the assay with RPMI-8226 leukemia stood at 31.8 µM; in the assay on SK-MEL-2 melanoma, 32.6 µM; with M14 melanoma, 45 µM; in the assay with MCF7 breast it was 39.6 µM; with NCI-H522 lung it was 38 µM; in the assay with PC-3 prostate it was 51.7 µM. Besides, the TGI with SK-MEL-28 melanoma came to 54.7 µM; in the assay with OVCAR-5 ovarian it was 44.2 µM.

`C#CCn1c(=O)c(I)cn(/C(=C/C(=O)OCC)C(=O)OCC)c1=O`: the TGI turned out to be 12.2 µM with RXF 393 renal; 23.9 µM with DU-145 prostate; 29.5 µM with MDA-MB-231 breast; 49.8 µM with NCI-H460 lung; 3.59 µM in the assay on HCT-116 colon; 26.2 µM with BT-549 breast. Also, the TGI in the assay on RPMI-8226 leukemia is 2.33 µM; in the assay on SK-MEL-2 melanoma, 33 µM; in the assay on M14 melanoma it was 3.61 µM; with MCF7 breast, 6.16 µM; with NCI-H522 lung, 2.37 µM; in the assay on PC-3 prostate, 11 µM. Moreover, the TGI in the assay with SK-MEL-28 melanoma is 26.2 µM; with OVCAR-5 ovarian, 31.1 µM; in the assay on HL-60(TB) leukemia, 3.89 µM.

In the case of `CCCCCCCC(CC(=O)NC(CO)C(=O)NC(CO)CC(C)C)OC(=O)CC(CCCCCCC)OC(=O)CC(CCCCCCC)OC1OC(C)C(O)C(OC2OC(C)C(OC(C)=O)C(O)C2O)C1O` (stereo not given), the TGI amounted to 16.9 µM in the assay on RXF 393 renal; 24 µM in the assay on DU-145 prostate; 20.4 µM in the assay on MDA-MB-231 breast; 15.6 µM in the assay on NCI-H460 lung; 6.22 µM in the assay with SR leukemia; 17.9 µM in the assay with HCT-116 colon. Also, the TGI in the assay on BT-549 breast amounted to 19.6 µM; in the assay on M14 melanoma, 13.8 µM; with MCF7 breast it was 23.8 µM; in the assay on NCI-H522 lung, 24.7 µM; with PC-3 prostate, 16.2 µM; in the assay on SK-MEL-28 melanoma it was 19.4 µM. In addition, the results for the TGI with OVCAR-5 ovarian and with HL-60(TB) leukemia were 21.7 µM and 9.2 µM, respectively.

Turning to `CC(C)NC(=O)OCc1c2c(n(C)c1COC(=O)NC(C)C)-c1cc(Cl)c(Cl)cc1CC2`, the TGI in the assay with RXF 393 renal was 94.8 µM; in the assay with DU-145 prostate it was greater than 100 µM; with MDA-MB-231 breast it was 55.3 µM; in the assay on NCI-H460 lung, greater than 100 µM; with SR leukemia it was greater than 100 µM; in the assay with HCT-116 colon, 66.9 µM. For the same compound, the TGI with BT-549 breast is greater than 100 µM; in the assay with RPMI-8226 leukemia, 64.8 µM; in the assay on SK-MEL-2 melanoma, 72.8 µM; with M14 melanoma, 66.6 µM; in the assay on MCF7 breast it was 45.2 µM; in the assay on PC-3 prostate it was greater than 100 µM. The TGI in the assay on SK-MEL-28 melanoma and in the assay on OVCAR-5 ovarian was greater than 100 µM in each case.

As for `O=C1C2=Cc3ccccc3OC2(O)Oc2cc3ccccc3cc21` (stereo not given), the TGI with RXF 393 renal, in the assay on DU-145 prostate, with MDA-MB-231 breast, in the assay on NCI-H460 lung, in the assay with SR leukemia and in the assay on HCT-116 colon was greater than 100 µM in each case. Moreover, the TGI with BT-549 breast, in the assay with RPMI-8226 leukemia, in the assay on SK-MEL-2 melanoma, with M14 melanoma, in the assay on MCF7 breast and with PC-3 prostate was greater than 100 µM each time. Besides, the TGI in the assay on SK-MEL-28 melanoma and in the assay on OVCAR-5 ovarian was greater than 100 µM each time.

As for `O=C(/C=C/c1ccc(O)c(O)c1)OCC(OC(=O)/C=C/c1ccc(O)c(O)c1)C(=O)O` (stereo not given), the TGI in the assay on RXF 393 renal, in the assay on DU-145 prostate, with MDA-MB-231 breast, in the assay on NCI-H460 lung, in the assay with SR leukemia and in the assay on HCT-116 colon was greater than 100 µM throughout. Besides, the TGI with BT-549 breast, in the assay on RPMI-8226 leukemia, with SK-MEL-2 melanoma, in the assay on M14 melanoma, in the assay on MCF7 breast and with NCI-H522 lung was greater than 100 µM throughout. The TGI in the assay with PC-3 prostate, with SK-MEL-28 melanoma and in the assay with OVCAR-5 ovarian was greater than 100 µM each time.

Values taken from PubChem BioAssay (NCI).
